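Five concentrations, 48 hours, 96-well plates. Here, GI50 denotes the concentration required for 50% inhibition of growth.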 The source made the active and inactive calls. Cut-off read from the data, not from the text of the source: active = GI50 up to about 1.1 µM and inactive = higher.

Some test systems named below: HCT-15; SNB-19; OVCAR-3; IGROV-1; SF-539; NCI-H23; OVCAR-4; HOP-62; M14; UACC-62; A498; EKVX; SR; CAKI-1; UACC-257; KM12; MDA-N; SNB-75; U-251; NCI-H522.
What all share (assay): NCI anticancer screen, dose series, 48 h

For `O=C1Cc2c(-c3ccccc3)cc(-c3cccc(Cl)c3)nc2-c2ccccc2N1`, the GI50 in the test with HCT-15 is 3.42 µM; with SNB-19 it was 1.64 µM (inactive); in the test on OVCAR-3 it was 2.1 µM (inactive); with IGROV-1 it was 1.2 µM (inactive); with SF-539, 6.34 µM (inactive); with NCI-H23, 5.24 µM (inactive). Besides, the GI50 was 1.5 µM (inactive) in the test on OVCAR-4; 1.38 µM (inactive) in the test on HOP-62; 8.09 µM (inactive) in the test on M14; 3.03 µM (inactive) in the test with UACC-62; 4.82 µM (inactive) in the test on A498; 2.29 µM (inactive) in the test on EKVX. In addition, the GI50 is 37.9 µM (inactive) in the test on SR; 1.82 µM (inactive) with CAKI-1; 6.32 µM (inactive) in the test on UACC-257; 5.02 µM (inactive) in the test with KM12; 6.82 µM (inactive) with MDA-N; 1.77 µM (inactive) in the test on SNB-75. In addition, the GI50 with U-251 was 1.75 µM (inactive); in the test with NCI-H522, 1.05 µM (active).
In the case of `COC(CN(C(C)=O)C1CCC2(SCCS2)c2[nH]c3ccccc3c21)OC` (stereo unspecified), the GI50 in the test on HCT-15 was more than 100 µM; in the test with SNB-19 it was > 100 µM (inactive); in the test with OVCAR-3, > 100 µM (inactive); with IGROV-1 it was > 100 µM (inactive); in the test on SF-539, > 100 µM (inactive); with NCI-H23, > 100 µM (inactive). Also, the GI50 is 62.7 µM (inactive) in the test on OVCAR-4; > 100 µM (inactive) with HOP-62; > 100 µM (inactive) with M14; > 100 µM (inactive) with A498; 72.1 µM (inactive) in the test with EKVX; 57.9 µM (inactive) in the test on SR. For the same compound, the GI50 with CAKI-1 was > 100 µM (inactive); in the test with UACC-257 it was 0.773 µM (active); in the test with KM12 it was > 100 µM (inactive); in the test on MDA-N it was > 100 µM (inactive); in the test on SNB-75 it was > 100 µM (inactive); in the test with U-251, > 100 µM (inactive). The GI50 in the test on NCI-H522 is > 100 µM (inactive).
Turning to `COc1cc(C)cc2c1C(=O)C(NC(C)=O)=CC2=O`, the GI50 with HCT-15 was more than 100 µM; in the test with SNB-19, > 100 µM (inactive); in the test on OVCAR-3, > 100 µM (inactive); with IGROV-1 it was > 100 µM (inactive); in the test on SF-539, > 100 µM (inactive); in the test on NCI-H23 it was > 100 µM (inactive). In addition, the GI50 is 24.6 µM (inactive) with OVCAR-4; > 100 µM (inactive) with HOP-62; > 100 µM (inactive) in the test on M14; 58.7 µM (inactive) in the test with UACC-62; > 100 µM (inactive) in the test with A498; > 100 µM (inactive) in the test on EKVX. The GI50 was 55.1 µM (inactive) in the test on SR; > 100 µM (inactive) in the test on CAKI-1; 57.4 µM (inactive) in the test on UACC-257; > 100 µM (inactive) with KM12; 18.1 µM (inactive) in the test with MDA-N; 45.7 µM (inactive) with SNB-75. For the same compound, the GI50 with U-251 and in the test on NCI-H522 was > 100 µM (inactive) in each case.
For `O=c1ccn(CC2(CO)CC(Cc3ccccc3)C2)c(=O)[nH]1` (stereo unspecified), the GI50 was more than 100 µM in the test on HCT-15; > 100 µM (inactive) in the test with OVCAR-3; > 100 µM (inactive) in the test on IGROV-1; > 100 µM (inactive) in the test on SF-539; > 100 µM (inactive) with NCI-H23; > 100 µM (inactive) with OVCAR-4. Also, the GI50 in the test with HOP-62, in the test on UACC-62, in the test with A498, with EKVX, in the test on SR and in the test on CAKI-1 was > 100 µM (inactive) in each case. Besides, the GI50 with UACC-257, in the test with KM12, in the test on MDA-N, in the test on SNB-75, in the test on U-251 and in the test on NCI-H522 was > 100 µM (inactive) each time.
Turning to `CCCCOP(C)(=O)C(NC(=O)OCC)(C(F)(F)F)C(F)(F)F` (stereo unspecified), the GI50 was more than 100 µM in the test on HCT-15; > 100 µM (inactive) in the test with SNB-19; > 100 µM (inactive) with OVCAR-3; > 100 µM (inactive) with IGROV-1; > 100 µM (inactive) in the test with SF-539; > 100 µM (inactive) in the test with NCI-H23. Besides, the GI50 with OVCAR-4, in the test with HOP-62, in the test on M14, in the test with UACC-62, in the test on A498 and in the test on EKVX was > 100 µM (inactive) each time. Besides, the GI50 in the test with SR, in the test with CAKI-1, in the test on UACC-257, with KM12, in the test on MDA-N and in the test on SNB-75 was > 100 µM (inactive) in each case. Besides, the figures for the GI50 with U-251 and in the test with NCI-H522 were > 100 µM (inactive) and 65.8 µM (inactive), respectively.
`Cc1ccc2c(O)cc(-c3cc(C)sc3C)nc2n1`: the GI50 in the test on HCT-15 was 1.46 µM; in the test on SNB-19, 3.66 µM (inactive); in the test with OVCAR-3 it was 3.5 µM (inactive); with IGROV-1, 3.36 µM (inactive); in the test with SF-539, 2.3 µM (inactive); with NCI-H23 it was 2.25 µM (inactive). For the same compound, the GI50 with OVCAR-4 is > 36.6 µM (inactive); in the test with HOP-62, 6.07 µM (inactive); with M14 it was 3.2 µM (inactive); with UACC-62, 4.88 µM (inactive); with A498, 4.78 µM (inactive); in the test on EKVX it was 10.8 µM (inactive). In addition, the GI50 was 0.55 µM (active) in the test on SR; 14.4 µM (inactive) in the test on CAKI-1; > 37.7 µM (inactive) in the test with UACC-257; 3.3 µM (inactive) in the test with KM12; 0.455 µM (active) in the test on MDA-N; 2.9 µM (inactive) in the test with SNB-75. Further, the GI50 in the test on U-251 is 3.69 µM (inactive); in the test with NCI-H522 it was 2.07 µM (inactive).
Regarding `O=C1C(Cl)=C(N2CCC[C@H]2CO)C(=O)c2c(O)ccc(O)c21`, the GI50 in the test on HCT-15 was 1.95 µM; in the test with SNB-19, > 10 µM (inactive); with OVCAR-3 it was 2.56 µM (inactive); with IGROV-1 it was 4.95 µM (inactive); in the test on SF-539, > 10 µM (inactive); with NCI-H23, 2.29 µM (inactive). Also, the GI50 was 2.16 µM (inactive) in the test on OVCAR-4; > 10 µM (inactive) in the test with HOP-62; 1.95 µM (inactive) in the test on M14; 2.04 µM (inactive) in the test with UACC-62; > 10 µM (inactive) with A498; 9.16 µM (inactive) with EKVX. Besides, the GI50 is 0.592 µM (active) in the test with SR; 1.66 µM (inactive) in the test with CAKI-1; 1.35 µM (inactive) in the test on UACC-257; 4.34 µM (inactive) with KM12; 1.86 µM (inactive) in the test with MDA-N; > 10 µM (inactive) in the test with SNB-75. Besides, the GI50 in the test on U-251 is > 10 µM (inactive); in the test with NCI-H522 it was 0.104 µM (active).
For `COc1cc2cc(C(=O)N3CC(CCl)c4c3cc(N(C)C)c3ccccc43)[nH]c2c(OC)c1OC` (stereo unspecified), the GI50 in the test on HCT-15 was less than 0.0115 µM; in the test with SNB-19, 0.0124 µM (active); with OVCAR-3 it was 0.0127 µM (active); with IGROV-1 it was 0.0111 µM (active); with SF-539 it was 0.0131 µM (active); with NCI-H23, < 0.01 µM (active). For the same compound, the GI50 with OVCAR-4 was 0.0163 µM (active); in the test on HOP-62 it was < 0.01 µM (active); with M14, < 0.01 µM (active); with UACC-62 it was < 0.01 µM (active); with A498 it was 0.0123 µM (active); in the test on EKVX, < 0.01 µM (active). The GI50 in the test on SR is < 0.01 µM (active); in the test with CAKI-1 it was < 0.01 µM (active); in the test on UACC-257 it was 0.0273 µM (active); with KM12, 0.0117 µM (active); with MDA-N, 0.0169 µM (active); with SNB-75, < 0.01 µM (active). Also, the GI50 in the test on U-251 and in the test on NCI-H522 was < 0.01 µM (active) throughout.
For `[N-]=[N+]=Nc1c(C=O)c(=O)n2c3c(cccc13)CCC2`, the GI50 with HCT-15 is 3.27 µM; in the test on SNB-19, 20 µM (inactive); in the test on OVCAR-3, 2.28 µM (inactive); in the test with IGROV-1, 11.9 µM (inactive); in the test with SF-539 it was 16.1 µM (inactive); in the test with NCI-H23, 4.26 µM (inactive). Also, the GI50 in the test with OVCAR-4 is 2.24 µM (inactive); with HOP-62, 18 µM (inactive); in the test on M14, 1.95 µM (inactive); with UACC-62, 12.8 µM (inactive); in the test with A498, 13.6 µM (inactive); with EKVX, 11.1 µM (inactive). Moreover, the GI50 in the test with SR was 1.1 µM (active); in the test on CAKI-1, 2.94 µM (inactive); with UACC-257, 4.53 µM (inactive); in the test with KM12, 17.5 µM (inactive); in the test on MDA-N, 5.81 µM (inactive); in the test with SNB-75 it was 14.2 µM (inactive). The values for the GI50 in the test on U-251 and with NCI-H522 were 13.6 µM (inactive) and 2.13 µM (inactive), respectively.
Turning to `O=Cc1cn(CCCCCCCCn2cc(C=O)c3ccccc32)c2ccccc12`, the GI50 with HCT-15 was more than 10 µM; with SNB-19, > 10 µM (inactive); with OVCAR-3 it was > 10 µM (inactive); with IGROV-1, > 10 µM (inactive); with SF-539 it was > 10 µM (inactive); in the test with NCI-H23, 2.19 µM (inactive). Moreover, the GI50 was > 10 µM (inactive) in the test on OVCAR-4; > 10 µM (inactive) with HOP-62; > 10 µM (inactive) in the test with M14; > 10 µM (inactive) in the test on UACC-62; 1.63 µM (inactive) with A498; > 10 µM (inactive) in the test with EKVX. The GI50 was 9.57 µM (inactive) in the test on SR; > 10 µM (inactive) with CAKI-1; > 10 µM (inactive) in the test on KM12; > 10 µM (inactive) in the test on MDA-N; 5.6 µM (inactive) in the test with SNB-75; > 10 µM (inactive) in the test on U-251. Also, the GI50 in the test with NCI-H522 was > 10 µM (inactive).

The values are drawn from ChEMBL document CHEMBL1201862, “PubChem BioAssay data set” (2004).
